The values below come from ChEMBL document CHEMBL5370642, “Synthesis and Bioevaluation of 3-(Arylmethylene)indole Derivatives: Discovery of a Novel ALK Modulator with Antiglioblastoma Activities” (J Med Chem, 2023).

Series [1] has as its system GL261. Description: Induction of autophagy in mouse GL261 cells transfected with mRFP-GFPLC3 adenovirus assessed as yellow fluorescence pretreated with CQ for 30 mins followed by treated at 2 uM measured after 48 hrs by confocal microscopy. It is filed as functional, cell-based.
Series [2] in a line: Half life in C57BL6/J mouse at 5 mg/kg, iv measured upto 24 hrs by LC-MS/MS analysis. It is filed as ADME, organism-based. The conditions noted are these: in vivo.
Series [3] relates to GL261. Description: Anti-proliferative activity against mouse GL261 cells assessed as cell viability incubated for 2 hrs by CCK8 assay. The conditions noted are these: GL261, 2 h. The format is functional, cell-based. (Tetrazolium dyes change colour on reduction, which living cells bring about.)
In series [4] the test system is GL261. The series can be described thus: In vivo induction of autophagy in mouse GL261 cells transfected with mRFP-GFPLC3 adenovirus allografted in C57BL/6J mouse model assessed as LC3 puncta in tumor tissue at 2.5 to 5 mg/kg, ip by immunofluorescence assay. The format is functional, organism-based. The note with it: dose 2.5-5 mg/kg.
The subject of series [5] is GL261. Description: Induction of cell cycle arrest in mouse GL261 cells assessed as accumulation of cells at S phase at 0.5 to 2 uM incubated for 24 to 72 hrs by flow cytometry. The format is functional. The conditions noted are these: dose 0.5-2 µM, time 24-72 hrs. (Flow cytometry measures light scatter and fluorescence of single cells or particles in a stream.)
The target of series [6] is ALK tyrosine kinase receptor (Mus musculus) (UniProt P97793). The series can be described thus: Binding affinity to ALK in mouse GL261 cell lysate assessed as immunoprecipitation measured after overnight incubation by pull-down assay. It is filed as subcellular.
ALK tyrosine kinase receptor (Mus musculus), sequence (P97793 whole entry): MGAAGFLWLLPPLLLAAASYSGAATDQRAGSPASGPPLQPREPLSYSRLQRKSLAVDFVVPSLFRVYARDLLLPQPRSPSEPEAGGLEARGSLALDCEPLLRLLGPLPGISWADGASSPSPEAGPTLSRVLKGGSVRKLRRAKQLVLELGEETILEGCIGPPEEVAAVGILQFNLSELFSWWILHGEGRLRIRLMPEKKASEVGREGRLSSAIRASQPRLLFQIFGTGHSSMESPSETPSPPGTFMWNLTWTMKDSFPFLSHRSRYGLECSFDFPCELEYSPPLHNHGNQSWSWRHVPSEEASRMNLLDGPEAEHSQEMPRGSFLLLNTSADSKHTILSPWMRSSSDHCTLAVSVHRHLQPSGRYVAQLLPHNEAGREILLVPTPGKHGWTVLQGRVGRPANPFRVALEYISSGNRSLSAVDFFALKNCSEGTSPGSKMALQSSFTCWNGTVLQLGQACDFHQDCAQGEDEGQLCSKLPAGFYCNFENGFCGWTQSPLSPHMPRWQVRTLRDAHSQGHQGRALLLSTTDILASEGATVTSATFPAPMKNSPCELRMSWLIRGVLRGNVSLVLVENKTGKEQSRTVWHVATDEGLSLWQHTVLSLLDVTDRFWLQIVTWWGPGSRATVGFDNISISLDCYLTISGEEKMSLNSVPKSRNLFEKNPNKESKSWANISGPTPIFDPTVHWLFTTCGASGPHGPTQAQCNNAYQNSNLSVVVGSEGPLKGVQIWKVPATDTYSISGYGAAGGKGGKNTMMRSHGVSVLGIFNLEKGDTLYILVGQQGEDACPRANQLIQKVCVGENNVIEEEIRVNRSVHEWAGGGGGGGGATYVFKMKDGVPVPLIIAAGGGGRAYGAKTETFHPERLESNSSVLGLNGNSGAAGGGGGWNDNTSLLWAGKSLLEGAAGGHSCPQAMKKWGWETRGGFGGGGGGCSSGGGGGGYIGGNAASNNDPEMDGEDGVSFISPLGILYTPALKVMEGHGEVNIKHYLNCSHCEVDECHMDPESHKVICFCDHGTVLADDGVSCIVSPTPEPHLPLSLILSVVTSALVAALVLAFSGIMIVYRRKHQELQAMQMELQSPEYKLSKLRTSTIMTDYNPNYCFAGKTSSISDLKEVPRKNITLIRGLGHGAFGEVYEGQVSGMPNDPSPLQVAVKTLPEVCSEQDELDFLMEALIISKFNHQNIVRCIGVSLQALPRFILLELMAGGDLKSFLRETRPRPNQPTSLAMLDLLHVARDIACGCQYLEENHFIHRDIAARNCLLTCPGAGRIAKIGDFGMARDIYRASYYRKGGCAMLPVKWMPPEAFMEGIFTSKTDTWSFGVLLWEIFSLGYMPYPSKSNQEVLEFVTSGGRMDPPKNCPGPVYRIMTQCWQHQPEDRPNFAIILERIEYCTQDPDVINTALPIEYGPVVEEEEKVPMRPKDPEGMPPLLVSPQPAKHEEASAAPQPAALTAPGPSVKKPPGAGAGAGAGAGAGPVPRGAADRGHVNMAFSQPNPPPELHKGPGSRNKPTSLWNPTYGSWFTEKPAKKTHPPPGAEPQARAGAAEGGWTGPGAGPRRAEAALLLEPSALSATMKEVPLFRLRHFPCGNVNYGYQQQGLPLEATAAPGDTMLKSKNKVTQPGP
Series [7] relates to GL261. Description: Induction of apoptosis in mouse GL261 cells assessed as increase in cleaved PARP level measured at 0.5 to 2 uM after 24 hrs by Western blot analysis. The format is functional, cell-based. The conditions noted are these: dose 0.5-2 µM. On the technique in general: Immunoblotting shows a protein as a band on a membrane.
Series [8] deals with GL261. The series can be described thus: Anti glioblastoma activity against mouse GL261-mNeonGreenLuc cells stereotaxically injected in corpus striatum of orthotopic glioblastoma mouse model assessed as shrunken tumor tissue at 5 mg/kg, ip once daily measured on day 21 by H and E staining analysis. It is filed as functional, organism-based.
Series [9] relates to GL261. The series can be described thus: Induction of autophagy in mouse GL261 cells assessed as increase in LC3BII levels at 0.5 to 2 uM incubated for 24 hrs by Western blot analysis. The format is functional, cell-based. The conditions noted are these: dose 0.5-2 µM.
Series [10] relates to GL261. Description: Anti-proliferative activity against mouse GL261 cells assessed as inhibition rate at 2 uM incubated for 72 hrs by CCK8 assay relative to control. The format is functional.
The nature of series [11]: MRT (0 to infinity) in C57BL6/J mouse at 5 mg/kg, iv measured upto 24 hrs by LC-MS/MS analysis. The format is ADME, organism-based. The note with it: in vivo.
For series [12], the system named is GL261. The series can be described thus: Induction of autophagy in mouse GL261 cells assessed as cell viability pretreated with 5 uM CQ for 4 hrs followed by treated at 0.5 to 2 uM measured after 48 hrs by CCK8 assay. The format is functional, cell-based.
Series [13] relates to GL261. Description: Induction of autophagy in mouse GL261 cells transfected with mRFP-GFPLC3 adenovirus assessed as yellow fluorescence at 2 uM incubated for 48 hrs by confocal microscopy. It is filed as functional, cell-based.
A short description of series [14]: MRT (0 to 8hrs) in C57BL6/J mouse at 5 mg/kg, ip measured upto 24 hrs by LC-MS/MS analysis. It is filed as ADME, organism-based. The note with it: in vivo.

Calls of active or inactive are those of the source.

A word on the half-life: it is the time needed for the level to fall by half in the phase considered. The term IC50 denotes the concentration needed to halve the response being measured. A word on the inhibition: it is the share of the control response that was lost under treatment. The MRT inf is the average time that molecules of a dose stay in the body. As a reminder, the MRT last is a mean duration of stay, worked out from the concentration-time curve. For the compound `Cc1ccc(S(=O)(=O)n2cc(Cc3cc(C)c(O)c(C)c3)c3ccccc32)cc1`, the outcome in [1] and in [12] was inactive. Besides, the half-life in [2] is 1.13 h. Moreover, the IC50 in series [3] is 1.35 µM. For the same compound, the outcome in series [4], in [6], in [7], in series [8], in series [9] and in [13] was Active. Besides, the Activity in series [5] came to 24.5%. Moreover, in series [10], the inhibition at 2 µM came out at 80%. This compound showed an MRT inf in [11] of 0.84 h. Besides, the MRT last at 24 h in series [14] was found to be 2.25 h.
